Results from ChEMBL document CHEMBL4334526, “Synthesis of Peptoid-Based Class I-Selective Histone Deacetylase Inhibitors with Chemosensitizing Properties” (J Med Chem, 2019).
One block for each compound: values may come before it. Activity calls are given as the source filed them. No cut-off for these calls is given here.

How the values were obtained:
[1] = target: T1, Class 1 histone deacetylase (Homo sapiens, UniProt Q13547+O15379+Q92769+Q9BY41); test: Inhibition of class 1 HDAC in human CAL27 cells assessed as potentiation of cisplatin-induced cytotoxicity by measuring combination index at 5 uM in presence of […] cisplatin by MTT assay based Chou-Talalay analysis; assay type: cell-based; settings: CAL-27
[2] = target: T1, Class 1 histone deacetylase; test: Inhibition of class 1 HDAC in human Cal27CisR cells assessed as increase in histone H3 acetylation at 5 uM measured after 24 hrs by immunoblot analysis; assay type: cell-based
[3] = target: T1, Class 1 histone deacetylase; test: (§1) Inhibition of class 1 HDAC in human Cal27CisR cells assessed as potentiation of cisplatin-induced apoptosis assessed as increase in caspase-3/7 activation at 5 uM preincubated for 48 hrs followed by cisplatin addition and measured after 24 hrs by CellEvent caspase 3/7 green detection reagent/Hoechst 33342 staining based imaging analysis; assay type: cell-based
[4] = target: T1, Class 1 histone deacetylase; test: Inhibition of class 1 HDAC in human CAL27 cells assessed as potentiation of cisplatin-induced cytotoxicity by measuring combination index at 5 uM in presence of 10 uM cisplatin by MTT assay based Chou-Talalay analysis; assay type: cell-based; settings: CAL-27
[5] = target: T1, Class 1 histone deacetylase; test: Inhibition of class 1 HDAC in human Cal27CisR cells assessed as potentiation of cisplatin-induced cytotoxicity by measuring combination index at 5 uM in presence of 1 uM cisplatin by MTT assay based Chou-Talalay analysis; assay type: cell-based
[6] = target: T1, Class 1 histone deacetylase; test: Inhibition of class 1 HDAC in human CAL27 cells assessed as potentiation of cisplatin-induced cytotoxicity by measuring combination index at 5 uM in presence of 1 uM cisplatin by MTT assay based Chou-Talalay analysis; assay type: cell-based; settings: CAL-27
[7] = target: T1, Class 1 histone deacetylase; settings: CAL-27
Description: Inhibition of class 1 HDAC in human CAL27 cells assessed as potentiation of cisplatin-induced cytotoxicity by measuring combination index at 0.25 uM in presence of 0.32 uM cisplatin by MTT assay based Chou-Talalay analysis

[8] = target: T1, Class 1 histone deacetylase; settings: CAL-27; remark: listed apart in the source
Description: Inhibition of class 1 HDAC in human CAL27 cells assessed as potentiation of cisplatin-induced cytotoxicity by measuring combination index at 0.1 uM in presence of 0.32 uM cisplatin by MTT assay based Chou-Talalay analysis

[9] = target: T1, Class 1 histone deacetylase; assay type: cell-based
[10] = target: T1, Class 1 histone deacetylase
Description: Inhibition of class 1 HDAC in human Cal27CisR cells assessed as potentiation of cisplatin-induced cytotoxicity by measuring combination index at 0.10 uM in presence of 1 uM cisplatin by MTT assay based Chou-Talalay analysis

[11] = target: T1, Class 1 histone deacetylase; settings: CAL-27; remark: listed apart in the source
Description: Inhibition of class 1 HDAC in human CAL27 cells assessed as potentiation of cisplatin-induced cytotoxicity by measuring combination index at 0.25 uM in presence of 0.1 uM cisplatin by MTT assay based Chou-Talalay analysis

[12] = target: T1, Class 1 histone deacetylase; settings: CAL-27; remark: listed apart in the source
Description: Inhibition of class 1 HDAC in human CAL27 cells assessed as potentiation of cisplatin-induced cytotoxicity by measuring combination index at 0.25 uM in presence of 3.2 uM cisplatin by MTT assay based Chou-Talalay analysis

[13] = target: T1, Class 1 histone deacetylase; settings: CAL-27; remark: listed apart in the source
Description: Inhibition of class 1 HDAC in human CAL27 cells assessed as potentiation of cisplatin-induced cytotoxicity by measuring combination index at 0.1 uM in presence of 3.2 uM cisplatin by MTT assay based Chou-Talalay analysis

[14] = target: T1, Class 1 histone deacetylase; remark: listed apart in the source
Description: Inhibition of class 1 HDAC in human Cal27CisR cells assessed as potentiation of cisplatin-induced cytotoxicity by measuring combination index at 0.25 uM in presence of 100 uM cisplatin by MTT assay based Chou-Talalay analysis

[15] = target: T1, Class 1 histone deacetylase; remark: listed apart in the source
[16] = Induction of apoptosis in human Cal27CisR cells assessed as accumulation at sub-G1 phase at […] after 48 hrs by propidium iodide staining based flow cytometry relative to control; assay type: functional
A2780 = test: Cytotoxicity against human A2780 cells assessed as reduction in cell survival up to 100 uM measured after 72 hrs by MTT assay; assay type: functional, cell-based
[17] = target: T1, Class 1 histone deacetylase; test: Inhibition of class 1 HDAC in human Cal27CisR cells assessed as increase in histone H3 acetylation at […] measured after 24 hrs by immunoblot analysis; assay type: cell-based
[18] = target: T1, Class 1 histone deacetylase; test: as §1, with “5 uM” left out; assay type: cell-based
[19] = target: T1, Class 1 histone deacetylase; test: as §1, with “CAL27” for “Cal27CisR”, “5 uM” left out; assay type: cell-based; settings: CAL-27

T1 sequence (O15379 whole entry, looked up): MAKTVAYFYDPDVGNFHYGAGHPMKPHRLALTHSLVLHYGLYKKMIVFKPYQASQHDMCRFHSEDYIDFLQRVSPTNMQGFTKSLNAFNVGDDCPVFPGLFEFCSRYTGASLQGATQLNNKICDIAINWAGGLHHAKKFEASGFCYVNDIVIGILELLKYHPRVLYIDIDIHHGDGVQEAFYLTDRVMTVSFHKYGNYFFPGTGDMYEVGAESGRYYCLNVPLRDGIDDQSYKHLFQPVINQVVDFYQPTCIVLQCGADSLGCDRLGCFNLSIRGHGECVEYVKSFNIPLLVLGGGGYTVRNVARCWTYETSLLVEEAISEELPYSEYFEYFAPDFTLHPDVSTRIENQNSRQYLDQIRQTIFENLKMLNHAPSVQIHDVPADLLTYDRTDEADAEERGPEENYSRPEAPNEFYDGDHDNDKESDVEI
T1 sequence (Q13547 whole entry, looked up): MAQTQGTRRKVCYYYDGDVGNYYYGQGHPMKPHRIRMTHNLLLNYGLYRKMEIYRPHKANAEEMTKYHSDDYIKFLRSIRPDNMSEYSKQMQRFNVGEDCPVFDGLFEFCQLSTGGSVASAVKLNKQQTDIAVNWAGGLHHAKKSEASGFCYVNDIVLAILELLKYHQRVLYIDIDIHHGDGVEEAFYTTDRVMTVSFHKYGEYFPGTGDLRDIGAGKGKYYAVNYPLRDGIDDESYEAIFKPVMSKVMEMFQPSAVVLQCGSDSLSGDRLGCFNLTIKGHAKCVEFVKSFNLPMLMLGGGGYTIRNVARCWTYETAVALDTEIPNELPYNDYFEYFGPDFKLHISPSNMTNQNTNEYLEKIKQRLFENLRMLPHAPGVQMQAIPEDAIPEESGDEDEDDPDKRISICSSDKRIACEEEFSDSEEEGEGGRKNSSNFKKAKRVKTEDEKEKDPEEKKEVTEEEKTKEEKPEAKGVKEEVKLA
T1 sequence (Q92769 whole entry, looked up): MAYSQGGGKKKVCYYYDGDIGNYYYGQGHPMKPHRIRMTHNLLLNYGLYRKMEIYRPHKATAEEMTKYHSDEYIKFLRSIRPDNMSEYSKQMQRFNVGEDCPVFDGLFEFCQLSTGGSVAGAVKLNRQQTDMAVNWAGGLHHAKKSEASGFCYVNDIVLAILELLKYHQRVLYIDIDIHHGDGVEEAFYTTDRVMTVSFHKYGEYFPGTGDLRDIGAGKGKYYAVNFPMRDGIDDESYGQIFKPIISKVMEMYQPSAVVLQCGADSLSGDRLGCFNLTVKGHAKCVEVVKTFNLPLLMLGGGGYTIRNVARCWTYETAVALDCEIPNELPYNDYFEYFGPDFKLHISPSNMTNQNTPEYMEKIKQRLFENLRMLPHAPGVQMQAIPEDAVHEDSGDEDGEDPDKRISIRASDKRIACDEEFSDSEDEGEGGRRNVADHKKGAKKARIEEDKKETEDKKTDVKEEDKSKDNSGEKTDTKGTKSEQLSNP
T1 sequence (Q9BY41 whole entry, looked up): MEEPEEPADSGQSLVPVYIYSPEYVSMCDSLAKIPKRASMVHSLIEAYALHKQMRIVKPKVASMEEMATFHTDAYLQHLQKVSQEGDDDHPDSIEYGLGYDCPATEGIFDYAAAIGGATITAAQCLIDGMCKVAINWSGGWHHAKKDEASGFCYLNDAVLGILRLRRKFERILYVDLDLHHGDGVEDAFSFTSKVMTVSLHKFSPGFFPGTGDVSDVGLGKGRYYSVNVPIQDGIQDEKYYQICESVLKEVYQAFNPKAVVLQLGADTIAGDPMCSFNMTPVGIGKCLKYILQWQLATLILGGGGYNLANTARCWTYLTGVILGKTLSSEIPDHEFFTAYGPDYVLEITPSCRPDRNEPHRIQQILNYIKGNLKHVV

inhibition [2]: Active
inhibition [3]: Active
SMILES: Cc1cc(C)cc(C(=O)N(CCCCCC(=O)Nc2cc(-c3ccccc3)ccc2N)CC(=O)NCc2ccccc2)c1
CI [1]: 0.1
CI [4]: 0.09
CI [5]: < 0.2
CI [6]: 0.76

CI [7]: 0.39
CI [8]: < 0.2
IC50 [9]: 8.42 µM
CI [10]: < 0.2
CI [11]: 0.56
CI [12]: 0.07
CI [13]: 0.37
CI [14]: 0.03
CI [15]: < 0.2
SMILES: CN(C)c1ccc(C(=O)N(CC(=O)NCc2ccccc2)Cc2ccc(C(=O)Nc3ccccc3N)cc2)cc1

SMILES: Cc1cc(C)cc(C(=O)N(CC(=O)NCc2ccccc2)Cc2ccc(C(=O)Nc3cc(-c4ccccc4)ccc3N)cc2)c1
Activity [16]: 7.45%
Activity (A2780): inactive
inhibition [17]: Active
inhibition [18]: Active
inhibition [19]: Active
